Source: PubChem BioAssay (NCI)
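Cultured in 96-well plates, cells were exposed to test compound for 48 hours across five concentrations. GI50 is the concentration that inhibits growth by half. Definition used: TGI = concentration required for complete inhibition of growth.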

Tests used:
Assay in all cases: NCI-60 cell line screen, 48 h
HT29 colon = tested on: HT29 colon
OVCAR-5 ovarian = tested on: OVCAR-5 ovarian
NCI-H226 lung = tested on: NCI-H226 lung
UACC-257 melanoma = tested on: UACC-257 melanoma
UO-31 renal = tested on: UO-31 renal
HCT-116 colon = tested on: HCT-116 colon
HOP-92 NSCLC = tested on: HOP-92 NSCLC
TK-10 renal = tested on: TK-10 renal
PC-3 prostate = tested on: PC-3 prostate
K-562 leukemia = tested on: K-562 leukemia
EKVX NSCLC = tested on: EKVX NSCLC
HS 578T breast = tested on: HS 578T breast
SW-620 colon = tested on: SW-620 colon
SK-MEL-5 melanoma = tested on: SK-MEL-5 melanoma
786-0 renal = tested on: 786-0 renal
RPMI-8226 leukemia = tested on: RPMI-8226 leukemia
HCT-15 colon = tested on: HCT-15 colon
NCI/ADR-RES ovarian = tested on: NCI/ADR-RES ovarian
SK-MEL-28 melanoma = tested on: SK-MEL-28 melanoma
SR leukemia = tested on: SR leukemia
A498 renal = tested on: A498 renal
BT-549 breast = tested on: BT-549 breast
DU-145 prostate = tested on: DU-145 prostate
M14 melanoma = tested on: M14 melanoma
UACC-62 melanoma = tested on: UACC-62 melanoma
U251 CNS = tested on: U251 CNS
SF-295 CNS = tested on: SF-295 CNS
OVCAR-3 ovarian = tested on: OVCAR-3 ovarian
SNB-75 CNS = tested on: SNB-75 CNS
HL-60(TB) leukemia = tested on: HL-60(TB) leukemia
IGROV1 ovarian = tested on: IGROV1 ovarian
COLO 205 colon = tested on: COLO 205 colon
RXF 393 renal = tested on: RXF 393 renal
SN12C renal = tested on: SN12C renal
T-47D breast = tested on: T-47D breast
OVCAR-8 ovarian = tested on: OVCAR-8 ovarian
MOLT-4 leukemia = tested on: MOLT-4 leukemia
ACHN renal = tested on: ACHN renal
SK-MEL-2 melanoma = tested on: SK-MEL-2 melanoma
MDA-MB-435 = tested on: MDA-MB-435
MALME-3M melanoma = tested on: MALME-3M melanoma
MCF7 breast = tested on: MCF7 breast
OVCAR-4 ovarian = tested on: OVCAR-4 ovarian
A549 NSCLC = tested on: A549 NSCLC
KM12 colon = tested on: KM12 colon
CAKI-1 renal = tested on: CAKI-1 renal
SNB-19 CNS = tested on: SNB-19 CNS
NCI-H460 lung = tested on: NCI-H460 lung
NCI-H522 lung = tested on: NCI-H522 lung
HCC-2998 colon = tested on: HCC-2998 colon
SF-268 CNS = tested on: SF-268 CNS
LOX IMVI melanoma = tested on: LOX IMVI melanoma
HOP-62 NSCLC = tested on: HOP-62 NSCLC
MDA-MB-231 breast = tested on: MDA-MB-231 breast
SK-OV-3 ovarian = tested on: SK-OV-3 ovarian
SF-539 CNS = tested on: SF-539 CNS

Cc1nc(-c2cc3ccccc3oc2=O)ccc1C(=O)/C=C/c1ccccn1
GI50 (HT29 colon): > 100 µM | TGI (HT29 colon): > 100 µM | GI50 (OVCAR-5 ovarian): > 100 µM | TGI (OVCAR-5 ovarian): > 100 µM | GI50 (NCI-H226 lung): > 100 µM | TGI (NCI-H226 lung): > 100 µM | GI50 (UACC-257 melanoma): > 100 µM | TGI (UACC-257 melanoma): > 100 µM | GI50 (UO-31 renal): > 100 µM | TGI (UO-31 renal): > 100 µM | GI50 (HCT-116 colon): 6.34 µM | TGI (HCT-116 colon): > 100 µM | GI50 (HOP-92 NSCLC): 7.25 µM | TGI (HOP-92 NSCLC): > 100 µM | GI50 (TK-10 renal): > 100 µM | TGI (TK-10 renal): > 100 µM | GI50 (PC-3 prostate): > 100 µM | TGI (PC-3 prostate): > 100 µM | GI50 (K-562 leukemia): 6.47 µM | TGI (K-562 leukemia): > 100 µM | GI50 (EKVX NSCLC): > 100 µM | TGI (EKVX NSCLC): > 100 µM | GI50 (HS 578T breast): > 100 µM | TGI (HS 578T breast): > 100 µM | GI50 (SW-620 colon): 6.77 µM | TGI (SW-620 colon): > 100 µM | GI50 (SK-MEL-5 melanoma): > 100 µM | TGI (SK-MEL-5 melanoma): > 100 µM | GI50 (786-0 renal): > 100 µM | TGI (786-0 renal): > 100 µM | GI50 (RPMI-8226 leukemia): 3.41 µM | TGI (RPMI-8226 leukemia): > 100 µM | GI50 (HCT-15 colon): > 100 µM | TGI (HCT-15 colon): > 100 µM | GI50 (NCI/ADR-RES ovarian): > 100 µM | TGI (NCI/ADR-RES ovarian): > 100 µM | GI50 (SK-MEL-28 melanoma): > 100 µM | TGI (SK-MEL-28 melanoma): > 100 µM | GI50 (SR leukemia): 5.3 µM | TGI (SR leukemia): > 100 µM | GI50 (A498 renal): > 100 µM | TGI (A498 renal): > 100 µM | GI50 (BT-549 breast): > 100 µM | TGI (BT-549 breast): > 100 µM | GI50 (DU-145 prostate): > 100 µM | TGI (DU-145 prostate): > 100 µM | GI50 (M14 melanoma): > 100 µM | TGI (M14 melanoma): > 100 µM | GI50 (UACC-62 melanoma): > 100 µM | TGI (UACC-62 melanoma): > 100 µM | GI50 (U251 CNS): 8.49 µM | TGI (U251 CNS): > 100 µM | GI50 (SF-295 CNS): > 100 µM | TGI (SF-295 CNS): > 100 µM | GI50 (OVCAR-3 ovarian): > 100 µM | TGI (OVCAR-3 ovarian): > 100 µM | GI50 (SNB-75 CNS): > 100 µM | TGI (SNB-75 CNS): > 100 µM | GI50 (HL-60(TB) leukemia): > 100 µM | TGI (HL-60(TB) leukemia): > 100 µM | GI50 (IGROV1 ovarian): > 100 µM | TGI (IGROV1 ovarian): > 100 µM | GI50 (COLO 205 colon): > 100 µM | TGI (COLO 205 colon): > 100 µM | GI50 (RXF 393 renal): > 100 µM | TGI (RXF 393 renal): > 100 µM | GI50 (SN12C renal): > 100 µM | TGI (SN12C renal): > 100 µM | GI50 (T-47D breast): > 100 µM | TGI (T-47D breast): > 100 µM | GI50 (OVCAR-8 ovarian): > 100 µM | TGI (OVCAR-8 ovarian): > 100 µM | GI50 (MOLT-4 leukemia): > 100 µM | TGI (MOLT-4 leukemia): > 100 µM | GI50 (ACHN renal): > 100 µM | TGI (ACHN renal): > 100 µM | GI50 (SK-MEL-2 melanoma): > 100 µM | TGI (SK-MEL-2 melanoma): > 100 µM | GI50 (MDA-MB-435): > 100 µM | TGI (MDA-MB-435): > 100 µM | GI50 (MALME-3M melanoma): > 100 µM | TGI (MALME-3M melanoma): > 100 µM | GI50 (MCF7 breast): 3.72 µM | TGI (MCF7 breast): > 100 µM | GI50 (OVCAR-4 ovarian): > 100 µM | TGI (OVCAR-4 ovarian): > 100 µM | GI50 (A549 NSCLC): > 100 µM | TGI (A549 NSCLC): > 100 µM | GI50 (KM12 colon): > 100 µM | TGI (KM12 colon): > 100 µM | GI50 (CAKI-1 renal): > 100 µM | TGI (CAKI-1 renal): > 100 µM | GI50 (SNB-19 CNS): > 100 µM | TGI (SNB-19 CNS): > 100 µM | GI50 (NCI-H460 lung): > 100 µM | TGI (NCI-H460 lung): > 100 µM | GI50 (NCI-H522 lung): > 100 µM | TGI (NCI-H522 lung): > 100 µM | GI50 (HCC-2998 colon): > 100 µM | TGI (HCC-2998 colon): > 100 µM | GI50 (SF-268 CNS): > 100 µM | TGI (SF-268 CNS): > 100 µM | GI50 (LOX IMVI melanoma): 3.2 µM | TGI (LOX IMVI melanoma): > 100 µM | GI50 (HOP-62 NSCLC): > 100 µM | TGI (HOP-62 NSCLC): > 100 µM | GI50 (MDA-MB-231 breast): > 100 µM | TGI (MDA-MB-231 breast): > 100 µM | GI50 (SK-OV-3 ovarian): > 100 µM | TGI (SK-OV-3 ovarian): > 100 µM | GI50 (SF-539 CNS): > 100 µM | TGI (SF-539 CNS): > 100 µM
